Values joined by “and” are separate entries in the source; they are usually repeats but may differ in a detail not shown here. Equal values may be shown once.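 Briefly, cells in 96-well plates were exposed to five compound concentrations for 48 h, and endpoints were estimated by linear interpolation. GI50: concentration for 50% inhibition of growth. At the TGI there is no net growth.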
Tested on: MDA-MB-468 breast
Test: inhibition of tumour cell growth, NCI panel, 48 h

| SMILES | GI50 | TGI |
| --- | --- | --- |
| CN1CCN(Cc2ccc(NC(=O)c3cncc(C#Cc4c(N)ncc5cc(F)ccc45)c3)cc2C(F)(F)F)CC1 | 6300 nM | 15400 nM |
| CO[C@H](C(=O)N[C@@H](CCCCNC(=O)OCc1ccccc1)C(=O)OC(C)(C)C)[C@@H]1Cc2cc3cc(OC4CC(OC5CC(O)C(O)C(C)O5)C(O)C(C)O4)c(C)c(O)c3c(O)c2C(=O)[C@H]1OC1CC(OC2CC(OC3CC(C)(O)C(O)C(C)O3)C(O)C(C)O2)C(O)C(C)O1 (stereo partly specified) | 764 nM | 2920 nM |
| Clc1ccc(CO/N=C(\Cn2ccnc2)c2ccc(Cl)cc2Cl)c(Cl)c1 | 1590 nM | 3060 nM |
| COc1cc(C(=O)n2nc(N3CCN(C)CC3)c3cc(N)ccc32)cc(OC)c1OC | 2970 nM | 9380 nM |
| COc1ccc(F)cc1C(=O)c1cnc(NC2CCN(S(C)(=O)=O)CC2)nc1N | 3950 nM | 9870 nM |
| CCNc1nc(N2CC(=O)Nc3cc(OC)ccc32)c2ccccc2n1 | 0.26 nM | – |
| Cn1cc(C2=C(c3c4n(c5ccccc35)CCC(CN)CC4)C(=O)NC2=O)c2ccccc21 (stereo unspecified) | 3720 nM | 7510 nM |
| COc1cccc2c1c1nc3cc(C)c(C)cc3nc1n2CCN(C)C | 1540 nM | 4140 nM |
| Cc1ccc(NC(=O)c2ccnc(N3CCCC3)c2)cc1-c1ccc(C(=O)NCC2CC2)cc1 | > 25000 nM | > 25000 nM |
| Cc1ccc(C(=O)NC2CCCCC2)cc1-c1ccc(C(=O)NCC2CC2)cc1 | > 23600 nM | > 25000 nM |
| O=C(Nc1ccc(Br)c(Cl)c1)c1cc(F)ccc1O | 942 nM | 3350 nM |
| CN(C)CC1CCn2c(c(C3=C(c4cn(C)c5ccccc45)C(=O)NC3=O)c3ccccc32)C1 (stereo unspecified) | 3510 nM | 7570 nM |
| CCCCCCCCCCCCCCCCOCCCOP(=O)(O)C1CCCN(O)C1=O (stereo unspecified) | 2570 nM | 9930 nM |
| CCCCCc1ccc(S(=O)(=O)Nc2cc(-c3csc(NC(=O)CN4CCN(C)CC4)n3)ccc2N2CCN(C)CC2)cc1 | 901 nM | 2020 nM |
| CO[C@H]1CC[C@@]2(C)C(=CC[C@H]3[C@@H]4C[C@H](O)C[C@@]4(C)CC[C@@H]32)C1 | 2410 nM | 9070 nM |
| CCN1CCN(S(=O)(=O)c2oc(-c3ccc(Cl)cc3)nc2C#N)CC1 | 2210 nM | 5160 nM |
| Cc1ccc(S(=O)(=O)n2cc(C(=O)C(=O)Nc3ccncc3)c3ccccc32)cc1 | 1100 nM | 9530 nM |
| CCOC(=O)c1c(Cl)c2c(n1Cc1cc(OC)cc(OC)c1)-c1oncc1CCC2 | 526 nM | > 100000 nM |
| COC(=O)c1c2c(c(C)[n+]([O-])c1C)C(=O)C(NCc1ccc(F)c(F)c1)=CC2=O | 1160 nM | 3070 nM |
| NC(=O)Oc1cc(OC(N)=O)cc(N(CCCl)CCCl)c1 | 1710 nM | 13000 nM |

| SMILES | GI50 | TGI |
| --- | --- | --- |
| O=C(Cn1ccnc1[N+](=O)[O-])NCC(F)(F)C(F)(F)F | > 100000 nM | > 100000 nM |
| COC(=O)[C@@H](C)C[C@H](Cc1ccccc1)NC(=O)c1csc([C@@H](C[C@H](C(C)C)N(C)C(=O)[C@@H](NC(=O)[C@H]2CCCCN2C)C(C)C)OC(C)=O)n1 | – | > 25000 nM |
| Cc1ccc2sc3c(NCCCNCCO)nc4ccccc4c3c(=O)c2c1 | 1540 nM | 3160 nM |
| COc1ccc(Nc2ccnc(NCCCNc3ccnc4cc(Cl)ccc34)n2)cc1 | 871 nM | 2420 nM |
| CC[C@H](C)C(=O)O[C@H]1CCC=C2C=C[C@H](C)C(CCC3C[C@@H](O)CC(=O)O3)[C@H]21 (stereo partly specified) | 5850 nM | 30800 nM |
| C/C(=C\c1ccn(-c2ccc(N)cc2)n1)[C@@H]1C[C@@H]2O[C@]2(C)CCC[C@H](C)[C@H](O)[C@@H](C)C(=O)C(C)(C)[C@@H](O)CC(=O)O1 | 39.1 nM | 1190 nM |
| COC(=O)Nc1nc2ccc(Oc3ccc(NC(=O)Nc4cccc(Cl)c4)cc3)cc2[nH]1 | 269 nM | 2200 nM |
| Cc1cccc(N=C2c3cc([N+](=O)[O-])ccc3-c3c2cc([N+](=O)[O-])cc3[N+](=O)[O-])c1 | 1670 nM | 3320 nM |
| CN1CCN(Cc2ccc(Nc3ncc(Cl)c(Nc4ccccc4S(=O)(=O)N(C)C)n3)cc2)CC1 | 52.5 nM | 268 nM |
| O=C1/C(=C/c2ccc(Cl)cc2)CN(C(=O)C(Cl)Cl)C/C1=C\c1ccc(Cl)cc1 | 182 nM | 376 nM |
| C=C[C@]1(C)C=C2C(=O)[C@@]3(O)OC(=O)[C@@]4(CCCC(C)(C)[C@H]34)[C@@]2(O)CC1 | 414 nM | 2000 nM |
| COc1cnc2c(c1)C(=O)c1c-2n(CCCN2CCN(C)CC2)c(=O)c2cc(Cl)ccc12 | 1190 nM | 14800 nM |
| [N-]=[N+]=CC(=O)OCC(N)C(=O)O (stereo unspecified) | 1210 nM | 11100 nM |
| C#C[C@@]1(O)[C@@H](CO)O[C@@H](n2cc(F)c3c(N)ncnc32)[C@@H]1O | 301 nM | 1530 nM |
| CC/C(=C(\CC)c1ccc(OCCN(CC)CC)cc1)c1ccc(OCCN(CC)CC)cc1 | 1590 nM | 3640 nM |
| O=C(O)CCC1CCC(c2cc(F)ccc2F)(S(=O)(=O)c2ccc(Cl)cc2)CC1 (stereo unspecified) | 13100 nM and 45300 nM | 52500 nM and > 100000 nM |
| COc1cc2c3c(n(C4CCNCC4)c(=O)c2cc1OC)-c1cc2c(cc1C3=O)OCO2 | 455 nM | 1850 nM |
| O=C1/C(=C/C(Cl)=C/c2ccccc2)SC(=S)N1CCc1ccc(O)cc1 | 1890 nM | 6040 nM |
| COc1ccc(-c2nc(-c3nc4cc(C)c(C)cc4[nH]3)cc3c2[nH]c2ccccc23)cc1 | 1990 nM | 4780 nM |

Reference: PubChem BioAssay (NCI)
